Each block holds one molecule with its values, some of them ahead of it.
Assays:
[1] = target: T1, Von Hippel-Lindau disease tumor suppressor/Elongin B/Elongin C (Homo sapiens) (UniProt P40337+Q15370+Q15369); assay: Binding affinity to VHL/Elongin C/Elogin B (unknown origin) assessed as change in enthalpy at 20 uM by ITC analysis; type: protein-complex assay
[2] = target: T2, Von Hippel-Lindau disease tumor suppressor/Elongin B/Elongin C (Homo sapiens, UniProt P40337); assay: Displacement of JC-9 probe from recombinant VHL/Elongin C/Elogin B (unknown origin) using FAM-DEALA-Hyp-YIPMDDDFQLRSF as substrate assessed as dissociation constant by competitive fluorescence polarization assay; type: protein-complex assay
[3] = target: T1, Von Hippel-Lindau disease tumor suppressor/Elongin B/Elongin C (Homo sapiens); assay: Binding affinity to VHL/Elongin C/Elogin B (unknown origin) assessed as change in entropy at 20 uM by ITC analysis; type: protein-complex assay
[4] = target: T2, Von Hippel-Lindau disease tumor suppressor/Elongin B/Elongin C; assay: Binding affinity to VHL/Elongin C/Elogin B (unknown origin) assessed as dissociation constant at 20 uM by ITC analysis; type: protein-complex assay
[5] = target: T1, Von Hippel-Lindau disease tumor suppressor/Elongin B/Elongin C (Homo sapiens); assay: Binding affinity to VHL/Elongin C/Elogin B (unknown origin) assessed as change in gibbs free energy at 20 uM by ITC analysis; type: protein-complex assay
[6] = target: Protein cereblon/Leucine-rich repeat serine/threonine-protein kinase 2 (Homo sapiens, UniProt Q5S007+Q96SW2); assay: PROTAC activity at CRBN/LRRK2 (unknown origin); type: protein assay
[7] = target: T3, von Hippel-Lindau disease tumor suppressor/Leucine-rich repeat serine/threonine-protein kinase 2 (Mus musculus) (UniProt Q5S006+P40338); assay: PROTAC activity at VHL/wildtype LRRK2 in MEF cells assessed as induction of LRRK2 degradation by measuring half-life at 300 nM incubated for 48 hrs by Western blot analysis; type: cell-based
HEK293 = assay: Binding affinity to C-terminal NanoLuc fused human LRRK2/VHL-elongin-B-elongin C (unknown origin) complex expressed in HEK293 cells assessed as ternary complex formation by measuring cooperativity factor by NanoBRET based assay; type: cell-based
[8] = target: T3, von Hippel-Lindau disease tumor suppressor/Leucine-rich repeat serine/threonine-protein kinase 2 (Mus musculus); assay: PROTAC activity at VHL/wildtype LRRK2 in MEF cells assessed as induction of LRRK2 degradation by measuring maximal efficacy at 300 nM incubated for 48 hrs by Western blot analysis relative to control; type: cell-based
[9] = target: T2, Von Hippel-Lindau disease tumor suppressor/Elongin B/Elongin C; assay: Binding affinity to VHL/Elongin C/Elogin B (unknown origin) using FAM-DEALA-Hyp-YIPMDDDFQLRSF as substrate assessed as dissociation constant by fluorescence polarization assay; type: protein-complex assay

T1 sequence (P40337 whole entry, looked up): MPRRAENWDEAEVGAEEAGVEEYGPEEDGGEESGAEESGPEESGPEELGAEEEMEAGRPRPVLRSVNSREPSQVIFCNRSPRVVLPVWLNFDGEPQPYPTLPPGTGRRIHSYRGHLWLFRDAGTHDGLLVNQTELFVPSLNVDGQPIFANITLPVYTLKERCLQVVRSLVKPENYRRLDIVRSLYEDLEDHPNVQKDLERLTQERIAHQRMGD
T1 sequence (Q15369 whole entry, looked up): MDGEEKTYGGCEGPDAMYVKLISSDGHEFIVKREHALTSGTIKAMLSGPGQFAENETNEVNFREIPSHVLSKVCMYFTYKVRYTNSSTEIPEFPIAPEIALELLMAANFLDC
T1 sequence (Q15370 whole entry, looked up): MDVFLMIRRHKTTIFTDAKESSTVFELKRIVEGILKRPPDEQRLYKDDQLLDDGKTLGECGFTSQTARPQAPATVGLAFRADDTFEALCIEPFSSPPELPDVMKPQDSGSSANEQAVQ
T2 sequence (P40337 whole entry, looked up): as the sequence (P40337 whole entry, looked up) above
T3 sequence (P40338 whole entry, looked up, the tested form may be a part): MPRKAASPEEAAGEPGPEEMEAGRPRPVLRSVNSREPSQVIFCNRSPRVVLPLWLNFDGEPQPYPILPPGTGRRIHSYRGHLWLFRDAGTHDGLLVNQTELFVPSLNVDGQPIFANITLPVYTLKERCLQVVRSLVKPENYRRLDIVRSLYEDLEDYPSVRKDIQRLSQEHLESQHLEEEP
T3 sequence (Q5S006 whole entry, looked up, the tested form may be a part): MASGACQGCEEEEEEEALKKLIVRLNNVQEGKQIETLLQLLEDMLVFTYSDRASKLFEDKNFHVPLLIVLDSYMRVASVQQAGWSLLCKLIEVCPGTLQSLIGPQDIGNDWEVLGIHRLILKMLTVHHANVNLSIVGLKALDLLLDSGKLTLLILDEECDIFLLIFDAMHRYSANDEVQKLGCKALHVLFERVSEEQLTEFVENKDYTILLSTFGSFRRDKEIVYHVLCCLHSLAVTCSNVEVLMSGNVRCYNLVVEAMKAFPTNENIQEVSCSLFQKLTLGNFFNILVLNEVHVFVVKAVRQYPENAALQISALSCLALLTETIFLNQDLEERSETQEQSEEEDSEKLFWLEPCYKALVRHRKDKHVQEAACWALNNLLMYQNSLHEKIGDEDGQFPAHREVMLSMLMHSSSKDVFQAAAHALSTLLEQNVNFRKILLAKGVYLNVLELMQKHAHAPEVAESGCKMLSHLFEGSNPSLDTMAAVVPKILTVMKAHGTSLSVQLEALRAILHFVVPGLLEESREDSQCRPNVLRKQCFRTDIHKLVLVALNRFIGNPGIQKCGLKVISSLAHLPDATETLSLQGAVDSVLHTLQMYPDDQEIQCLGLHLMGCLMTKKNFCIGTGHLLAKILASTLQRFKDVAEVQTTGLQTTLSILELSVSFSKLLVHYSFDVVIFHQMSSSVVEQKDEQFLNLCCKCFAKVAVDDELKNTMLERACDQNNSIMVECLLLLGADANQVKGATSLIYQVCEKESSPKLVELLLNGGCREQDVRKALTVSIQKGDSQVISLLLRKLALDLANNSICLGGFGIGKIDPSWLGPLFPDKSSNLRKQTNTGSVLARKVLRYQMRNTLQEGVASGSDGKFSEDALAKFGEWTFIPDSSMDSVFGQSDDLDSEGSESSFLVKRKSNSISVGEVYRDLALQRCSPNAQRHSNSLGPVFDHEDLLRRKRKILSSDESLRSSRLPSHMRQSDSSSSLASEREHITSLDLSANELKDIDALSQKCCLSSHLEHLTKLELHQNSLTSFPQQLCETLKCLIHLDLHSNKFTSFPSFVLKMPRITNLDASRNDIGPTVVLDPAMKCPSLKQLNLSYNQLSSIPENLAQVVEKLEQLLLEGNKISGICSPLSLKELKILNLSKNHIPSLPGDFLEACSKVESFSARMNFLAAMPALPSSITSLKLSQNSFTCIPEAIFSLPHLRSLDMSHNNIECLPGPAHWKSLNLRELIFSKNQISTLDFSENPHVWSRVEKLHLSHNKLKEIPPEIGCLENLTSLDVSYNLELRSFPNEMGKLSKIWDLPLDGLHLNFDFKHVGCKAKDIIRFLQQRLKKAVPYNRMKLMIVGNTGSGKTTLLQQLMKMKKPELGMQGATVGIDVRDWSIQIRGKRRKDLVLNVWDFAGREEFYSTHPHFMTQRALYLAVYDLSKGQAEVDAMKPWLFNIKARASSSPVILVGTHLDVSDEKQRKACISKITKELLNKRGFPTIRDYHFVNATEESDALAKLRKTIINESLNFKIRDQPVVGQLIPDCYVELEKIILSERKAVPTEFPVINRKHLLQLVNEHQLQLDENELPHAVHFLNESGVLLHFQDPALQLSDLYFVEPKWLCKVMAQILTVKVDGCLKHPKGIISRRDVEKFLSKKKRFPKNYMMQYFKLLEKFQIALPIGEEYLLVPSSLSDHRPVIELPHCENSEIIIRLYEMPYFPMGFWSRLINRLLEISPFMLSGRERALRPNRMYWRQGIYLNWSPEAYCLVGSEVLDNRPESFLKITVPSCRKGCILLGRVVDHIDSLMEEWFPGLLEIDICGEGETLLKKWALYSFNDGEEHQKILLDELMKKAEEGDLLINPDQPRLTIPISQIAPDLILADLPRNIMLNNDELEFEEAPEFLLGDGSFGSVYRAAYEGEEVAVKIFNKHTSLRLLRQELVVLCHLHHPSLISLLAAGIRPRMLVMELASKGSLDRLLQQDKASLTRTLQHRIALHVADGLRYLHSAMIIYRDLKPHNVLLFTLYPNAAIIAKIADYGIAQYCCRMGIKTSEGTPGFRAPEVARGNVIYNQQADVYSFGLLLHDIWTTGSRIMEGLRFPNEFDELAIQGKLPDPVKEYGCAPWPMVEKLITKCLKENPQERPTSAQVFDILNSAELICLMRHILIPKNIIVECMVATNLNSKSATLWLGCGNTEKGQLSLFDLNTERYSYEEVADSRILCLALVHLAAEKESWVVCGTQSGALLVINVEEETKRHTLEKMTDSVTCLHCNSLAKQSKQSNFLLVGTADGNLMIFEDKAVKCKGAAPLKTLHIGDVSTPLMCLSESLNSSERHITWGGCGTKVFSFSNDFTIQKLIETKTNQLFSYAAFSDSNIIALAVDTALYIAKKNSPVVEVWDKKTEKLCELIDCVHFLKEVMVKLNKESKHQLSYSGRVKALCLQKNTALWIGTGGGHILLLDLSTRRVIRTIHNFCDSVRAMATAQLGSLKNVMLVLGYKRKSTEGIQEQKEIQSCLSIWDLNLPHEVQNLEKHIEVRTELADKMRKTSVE

deltaH [1]: -6.98 kcal/mol
Kd [2]: 540 nM
TdeltaS [3]: -1.77 kcal/mol
Kd [4]: 396 nM
deltaG [5]: -8.75 kcal/mol
Compound: Cc1ncsc1-c1ccc(CNC(=O)[C@@H]2C[C@@H](O)CN2C(=O)[C@@H](NC(=O)C2(F)CC2)C(C)(C)SC[C@H]2CC[C@H](CN3CCOCC3)CC2)cc1

Kd [2]: 406 nM
Compound: CSC(C)(C)[C@H](NC(=O)C1(F)CC1)C(=O)N1C[C@H](O)C[C@H]1C(=O)NCc1ccc(-c2scnc2C)cc1

Kd [2]: 585 nM
Compound: COc1ccc(C(=O)N2CCN(C[C@H]3CC[C@H](CSC(C)(C)[C@H](NC(=O)C4(F)CC4)C(=O)N4C[C@H](O)C[C@H]4C(=O)NCc4ccc(-c5scnc5C)cc4)CC3)CC2)cc1

DC50 [6]: < 10 nM
Compound: CC1(Oc2ccc3[nH]nc(-c4cc(N5CCN(C[C@H]6CC[C@@H](CN7CCN(c8ccc9c(c8F)CN(C8CCC(=O)NC8=O)C9=O)CC7)CC6)CC5)ncn4)c3c2)CC1 (stereo partly specified)

Kd [2]: 514 nM
Compound: Cc1ncsc1-c1ccc(CNC(=O)[C@@H]2C[C@@H](O)CN2C(=O)[C@@H](NC(=O)C2(F)CC2)C(C)(C)SC[C@H]2CC[C@H](CN(C)C)CC2)cc1

Kd [2]: 313 nM
Compound: Cc1ncsc1-c1ccc(CNC(=O)[C@@H]2C[C@@H](O)CN2C(=O)[C@@H](NC(=O)C2(F)CC2)C(C)(C)SC[C@H]2CC[C@@H](CN(C)C)CC2)cc1

Kd [2]: 260 nM
Compound: COc1ccc(C(=O)N2CCN(C[C@H]3CC[C@@H](CSC(C)(C)[C@H](NC(=O)C4(F)CC4)C(=O)N4C[C@H](O)C[C@H]4C(=O)NCc4ccc(-c5scnc5C)cc4)CC3)CC2)cc1

T1/2 [7]: 1.2 h
Kd [2]: > 820 nM
Emax [8]: 82%
Kd [9]: > 2330 nM
Compound: CNc1nc(Nc2ccc(C(=O)N3CCN(C[C@H]4CC[C@H](CSC(C)(C)[C@H](NC(=O)C5(F)CC5)C(=O)N5C[C@H](O)C[C@H]5C(=O)NCc5ccc(-c6scnc6C)cc5)CC4)CC3)cc2OC)ncc1Cl
Activity (HEK293): 5.7

deltaH [1]: -7.96 kcal/mol
Kd [2]: 354 nM
TdeltaS [3]: -1.31 kcal/mol
Kd [4]: 165 nM
deltaG [5]: -9.25 kcal/mol
Compound: Cc1ncsc1-c1ccc(CNC(=O)[C@@H]2C[C@@H](O)CN2C(=O)[C@@H](NC(=O)C2(F)CC2)C(C)(C)SC[C@H]2CC[C@@H](CN3CCOCC3)CC2)cc1

T1/2 [7]: 2.7 h
Kd [2]: 326 nM
Emax [8]: 59%
Kd [9]: 160 nM
Compound: CNc1nc(Nc2ccc(C(=O)N3CCN(C[C@H]4CC[C@@H](CSC(C)(C)[C@H](NC(=O)C5(F)CC5)C(=O)N5C[C@H](O)C[C@H]5C(=O)NCc5ccc(-c6scnc6C)cc5)CC4)CC3)cc2OC)ncc1Cl
Activity (HEK293): 1.4

Source: ChEMBL document CHEMBL5584252, “Stereochemical inversion at a 1,4-cyclohexyl PROTAC linker fine-tunes conformation and binding affinity” (Bioorg Med Chem Lett, 2024)
